Here are results for 17 molecules from patent publication US20230365537A1, “POLO LIKE KINASE 4 INHIBITORS” (ORIC Pharmaceuticals, Inc., priority 2021, published 2023).

Molecules are shown by their SMILES.

Experiment [1] has as its target human recombinant Aurora B (Homo sapiens (Human), UniProt Q96GD4). Briefly: Aurora B Kinase Biochemical Assay (ADP-Glo). The following applies: ratio of Aurora B IC50 to PLK4 IC50 (selectivity). Summed up: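 Recombinant human Aurora B (20 nM in pH 7.5 HEPES buffer with MgCl2, EGTA, DTT, Brij-35, BSA) preincubated with compound 15 min at RT. ADP formed quantified by ADP-Glo luminescence after ATP depletion (40 min) and detection (30 min). IC50 from four-parameter non-linear regression.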

The target of the next experiment is human recombinant PLK4 (Homo sapiens (Human), UniProt O00444). Description: PLK4 Biochemical Assay (ADP-Glo). The following applies: 0.5 nM PLK4, 8.0 µM ATP, 4.7 µM MBP, 6 hours at RT. The gist of the method:
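Recombinant human PLK4 (added at 1.0 nM) was preincubated 15 min at RT with compound in 50 mM HEPES pH 7.5, 10 mM MgCl2, 1 mM EGTA, 1 mM DTT, 0.01% Brij-35, 0.01% BSA. ADP formed was detected by ADP-Glo luminescence (40 min ATP depletion, 30 min detection). IC50 came from a four-parameter fit.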

Another experiment concerns CHP-134 cells. Briefly: CHP134 CellTiter-Glo (CTG) Assay. To be noted: Homo sapiens, CHP-134, 120 h, 5 days, viable cells by CellTiter-Glo. It is filed as cell-based. Summed up: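 CHP-134 cells seeded at 200 cells/well for 16 h, then given nine 1:3 serial dilutions in quadruplicate at 37° C, 5% CO2. Viable cells measured by CellTiter-Glo luminescence after 5 days; IC50 calculated from curves.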

For experiment [2], the target named is human recombinant Aurora A (Homo sapiens (Human), UniProt O14965). Briefly: Aurora A Kinase Biochemical Assay (ADP-Glo). The following applies: ratio of Aurora A IC50 to PLK4 IC50 (selectivity).
Chain of human recombinant Aurora A (O14965 whole entry): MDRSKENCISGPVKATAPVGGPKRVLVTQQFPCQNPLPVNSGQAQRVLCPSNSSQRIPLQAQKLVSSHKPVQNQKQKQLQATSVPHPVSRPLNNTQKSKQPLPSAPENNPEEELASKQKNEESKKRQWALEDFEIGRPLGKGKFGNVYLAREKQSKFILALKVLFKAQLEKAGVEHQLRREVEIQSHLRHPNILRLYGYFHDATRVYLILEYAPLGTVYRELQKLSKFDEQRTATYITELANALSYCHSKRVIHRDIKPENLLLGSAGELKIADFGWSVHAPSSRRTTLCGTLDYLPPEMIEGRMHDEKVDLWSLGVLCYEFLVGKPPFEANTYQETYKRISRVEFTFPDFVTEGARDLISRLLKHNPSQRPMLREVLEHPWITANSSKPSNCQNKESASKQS

Chain of human recombinant Aurora B (Q96GD4 whole entry): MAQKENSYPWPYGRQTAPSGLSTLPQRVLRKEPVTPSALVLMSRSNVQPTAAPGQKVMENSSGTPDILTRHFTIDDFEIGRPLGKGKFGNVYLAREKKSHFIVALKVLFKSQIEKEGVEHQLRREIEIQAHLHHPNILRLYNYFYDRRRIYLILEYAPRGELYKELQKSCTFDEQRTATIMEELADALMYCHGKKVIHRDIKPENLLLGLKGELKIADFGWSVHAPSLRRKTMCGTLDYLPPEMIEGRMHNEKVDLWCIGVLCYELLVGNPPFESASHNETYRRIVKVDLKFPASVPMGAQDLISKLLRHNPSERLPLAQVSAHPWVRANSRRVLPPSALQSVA
Chain of human recombinant PLK4 (O00444 whole entry): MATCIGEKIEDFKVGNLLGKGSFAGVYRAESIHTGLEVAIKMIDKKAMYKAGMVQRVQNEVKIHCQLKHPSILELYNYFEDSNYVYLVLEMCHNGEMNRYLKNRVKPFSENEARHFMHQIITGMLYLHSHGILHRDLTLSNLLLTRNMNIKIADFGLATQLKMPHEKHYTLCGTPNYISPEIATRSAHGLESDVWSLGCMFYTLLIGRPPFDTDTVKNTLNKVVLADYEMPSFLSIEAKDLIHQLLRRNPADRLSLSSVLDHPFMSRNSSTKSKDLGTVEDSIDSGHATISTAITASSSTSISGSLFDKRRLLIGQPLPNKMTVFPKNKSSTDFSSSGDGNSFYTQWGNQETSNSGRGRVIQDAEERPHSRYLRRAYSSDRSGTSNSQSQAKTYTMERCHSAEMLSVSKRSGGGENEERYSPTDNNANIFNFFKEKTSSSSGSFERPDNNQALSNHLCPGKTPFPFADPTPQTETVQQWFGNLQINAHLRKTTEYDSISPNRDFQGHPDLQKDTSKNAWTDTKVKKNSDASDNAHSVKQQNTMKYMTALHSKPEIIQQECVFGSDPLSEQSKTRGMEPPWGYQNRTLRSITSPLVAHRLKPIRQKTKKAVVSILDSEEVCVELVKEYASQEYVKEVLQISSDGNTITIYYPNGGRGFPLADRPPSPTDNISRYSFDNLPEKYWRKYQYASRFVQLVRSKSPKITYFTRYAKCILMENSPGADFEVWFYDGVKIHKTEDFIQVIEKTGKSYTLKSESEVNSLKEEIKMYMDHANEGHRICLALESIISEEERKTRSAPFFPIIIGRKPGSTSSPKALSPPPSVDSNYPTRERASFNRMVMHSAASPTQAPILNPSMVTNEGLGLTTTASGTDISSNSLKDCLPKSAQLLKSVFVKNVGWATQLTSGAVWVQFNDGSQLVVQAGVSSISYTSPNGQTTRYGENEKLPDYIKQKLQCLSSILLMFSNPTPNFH

For the molecule `COc1ccc2c(c1)[C@]1(C[C@H]1c1ccc3c(Nc4nc(C(C)C)ncc4OC)n[nH]c3c1)C(=O)N2` [Example 125, (1R,2S)-5′-methoxy-2-(3-{[5-methoxy-2-(propan-2-yl)pyrimidin-4-yl]amino}-1H-indazol-6-yl)spiro[cyclopropane-1,3′-indol]-2′(1′H)-one], the “[Aurora B IC50 (nM)]/[PLK4 IC50 (nM)]” value in experiment [1] amounted to 495.7388. Also, the IC50 on human recombinant PLK4 worked out at 0.833 nM; with CHP-134 cells, 160 nM. Also, in experiment [2], the “[Aurora A IC50 (nM)]/[PLK4 IC50 (nM)]” value worked out at 1323.9707.

On to `COc1cnc(C)nc1Nc1n[nH]c2cc([C@@H]3C[C@@]34C(=O)Nc3ccc(C)cc34)ccc12` [Example 126, (1R,2S)-2-{3-[(5-methoxy-2-methylpyrimidin-4-yl)amino]-1H-indazol-6-yl}-5′-methylspiro[cyclopropane-1,3′-indol]-2′(1′H)-one], for which the “[Aurora B IC50 (nM)]/[PLK4 IC50 (nM)]” value in experiment [1] is on record as 92.0568. The IC50 at human recombinant PLK4 is 9.01 nM; with CHP-134 cells it was 459 nM. Besides, the “[Aurora A IC50 (nM)]/[PLK4 IC50 (nM)]” value in experiment [2] was determined as 66.2192.

Take `COc1ccc2c(c1)[C@]1(C[C@H]1c1ccc3c(Nc4nc(C(C)C)ncc4OC(F)F)n[nH]c3c1)C(=O)N2` [Example 128, (1R,2S)-2-(3-{[5-(difluoromethoxy)-2-(propan-2-yl)pyrimidin-4-yl]amino}-1H-indazol-6-yl)-5′-methoxyspiro[cyclopropane-1,3′-indol]-2′(1′H)-one]: the “[Aurora B IC50 (nM)]/[PLK4 IC50 (nM)]” value in experiment [1] is given as 1337.0280. Besides, the IC50 at human recombinant PLK4 stood at 2.89 nM; with CHP-134 cells, 1490 nM. In experiment [2], the “[Aurora A IC50 (nM)]/[PLK4 IC50 (nM)]” value stood at 2750.2597.

Take `COc1ccc2c(c1)[C@]1(C[C@H]1c1ccc3c(Nc4ncnc(N5CC6(COC6)C5)c4Cl)n[nH]c3c1)C(=O)N2` [Example 132, (1R,2S)-2-(3-{[5-chloro-6-(2-oxa-6-azaspiro[3.3]heptan-6-yl)pyrimidin-4-yl]amino}-1H-indazol-6-yl)-5′-methoxyspiro[cyclopropane-1,3′-indol]-2′(1′H)-one]: in experiment [1], the “[Aurora B IC50 (nM)]/[PLK4 IC50 (nM)]” value is on record as 249.5114. The values for the half-maximal inhibitory concentration (IC50) on human recombinant PLK4 and in the experiment on CHP-134 cells were 2.15 nM and 618 nM, respectively. Moreover, the “[Aurora A IC50 (nM)]/[PLK4 IC50 (nM)]” value in experiment [2] was 5290.8329.

Consider `COc1cnc(C)nc1Nc1n[nH]c2cc([C@@H]3C[C@@]34C(=O)Nc3ccc(F)cc34)ccc12` [Example 133, (1R,2S)-5′-fluoro-2-{3-[(5-methoxy-2-methylpyrimidin-4-yl)amino]-1H-indazol-6-yl}spiro[cyclopropane-1,3′-indol]-2′(1′H)-one], for which the “[Aurora B IC50 (nM)]/[PLK4 IC50 (nM)]” value in experiment [1] is on record as 45.1453. For the same molecule, the values for the IC50 on human recombinant PLK4 and with CHP-134 cells were 8.32 nM and 193 nM, respectively. Besides, in experiment [2], the “[Aurora A IC50 (nM)]/[PLK4 IC50 (nM)]” value was 43.3910.

With `CCOc1cnc(C)nc1Nc1n[nH]c2cc([C@@H]3C[C@@]34C(=O)Nc3ccc(OC)cc34)ccc12` [Example 134, (1R,2S)-2-{3-[(5-ethoxy-2-methylpyrimidin-4-yl)amino]-1-indazol-6-yl}-5′-methoxyspiro[cyclopropane-1,3′-indol]-2′(1′H)-one], the “[Aurora B IC50 (nM)]/[PLK4 IC50 (nM)]” value in experiment [1] is recorded as 969.2737. For the same molecule, the IC50 on human recombinant PLK4 was 1.79 nM; in the experiment with CHP-134 cells, 782 nM. Also, the “[Aurora A IC50 (nM)]/[PLK4 IC50 (nM)]” value in experiment [2] is listed as 8849.1620.

In the case of `COc1ccc2c(c1)[C@]1(C[C@H]1c1ccc3c(Nc4nc(C)ncc4C4CC4)n[nH]c3c1)C(=O)N2` [Example 140, (1R,2S)-2-{3-[(5-cyclopropyl-2-methylpyrimidin-4-yl)amino]-1H-indazol-6-yl}-5′-methoxyspiro[cyclopropane-1,3′-indol]-2′(1′H)-one], in experiment [1], the “[Aurora B IC50 (nM)]/[PLK4 IC50 (nM)]” value came to 537. In addition, the IC50 was determined as 16.6 nM on human recombinant PLK4 and 7760 nM with CHP-134 cells. The “[Aurora A IC50 (nM)]/[PLK4 IC50 (nM)]” value in experiment [2] came out at 814.

In the case of `COc1ccc2c(c1)[C@]1(C[C@H]1c1cc3[nH]nc(Nc4nc(C)ncc4OC)c3cc1F)C(=O)N2` [Example 144, (1R,2R)-2-{5-fluoro-3-[(5-methoxy-2-methylpyrimidin-4-yl)amino]-1H-indazol-6-yl}-5′-methoxyspiro[cyclopropane-1,3′-indol]-2′(1′H)-one], the “[Aurora B IC50 (nM)]/[PLK4 IC50 (nM)]” value in experiment [1] was determined as 61.4367. The values for the half-maximal inhibitory concentration (IC50) on human recombinant PLK4 and with CHP-134 cells were 1.41 nM and 750 nM, respectively. Further, the “[Aurora A IC50 (nM)]/[PLK4 IC50 (nM)]” value in experiment [2] was 852.7955.

Regarding `COc1ccc2c(c1)[C@]1(C[C@H]1c1ccc3c(Nc4cc(C)nnc4OC)n[nH]c3c1)C(=O)N2` [Example 145, (1R,2S)-5′-methoxy-2-{3-[(3-methoxy-6-methylpyridazin-4-yl)amino]-1H-indazol-6-yl}spiro[cyclopropane-1,3′-indol]-2′(1′H)-one], the “[Aurora B IC50 (nM)]/[PLK4 IC50 (nM)]” value in experiment [1] is recorded as 280.8043. Besides, the half-maximal inhibitory concentration (IC50) came out at 5.82 nM on human recombinant PLK4 and 2920 nM with CHP-134 cells. Besides, in experiment [2], the “[Aurora A IC50 (nM)]/[PLK4 IC50 (nM)]” value was found to be 1001.5467.

Take `COc1ccc2c(c1)[C@]1(C[C@H]1c1ccc3c(Nc4nc(C)ncc4OCC4CC4)n[nH]c3c1)C(=O)N2` [Example 146, (1R,2S)-2-(3-{[5-(cyclopropylmethoxy)-2-methylpyrimidin-4-yl]amino}-1H-indazol-6-yl)-5′-methoxyspiro[cyclopropane-1,3′-indol]-2′(1′H)-one]: the “[Aurora B IC50 (nM)]/[PLK4 IC50 (nM)]” value in experiment [1] was determined as 745.8082. Further, the IC50 on human recombinant PLK4 is 1.49 nM; in the experiment on CHP-134 cells it was 655 nM. For the same molecule, the “[Aurora A IC50 (nM)]/[PLK4 IC50 (nM)]” value in experiment [2] is 3512.4078.

Take `COc1ccc2c(c1)[C@]1(C[C@H]1c1ccc3c(Nc4nc(C)ncc4OCC(F)F)n[nH]c3c1)C(=O)N2` [Example 147, (1R,2S)-2-(3-{[5-(2,2-difluoroethoxy)-2-methylpyrimidin-4-yl]amino}-1H-indazol-6-yl)-5′-methoxyspiro[cyclopropane-1,3′-indol]-2′(1′H)-one]: in experiment [1], the “[Aurora B IC50 (nM)]/[PLK4 IC50 (nM)]” value came to 483.0689. Moreover, the IC50 is 4.22 nM at human recombinant PLK4 and 1300 nM in the experiment with CHP-134 cells. Moreover, the “[Aurora A IC50 (nM)]/[PLK4 IC50 (nM)]” value in experiment [2] came out at 2292.2093.

In the case of `COc1ccc2c(c1)[C@]1(C[C@H]1c1ccc3c(Nc4cc(C)ccc4OC)n[nH]c3c1)C(=O)N2` [Example 148, (1R,2S)-5′-methoxy-2-[3-(2-methoxy-5-methylanilino)-1H-indazol-6-yl]spiro[cyclopropane-1,3′-indol]-2′(1′H)-one], the “[Aurora B IC50 (nM)]/[PLK4 IC50 (nM)]” value in experiment [1] came out at 338.8646. For the same molecule, the IC50 amounted to 6.87 nM at human recombinant PLK4 and 3570 nM with CHP-134 cells. Moreover, the “[Aurora A IC50 (nM)]/[PLK4 IC50 (nM)]” value in experiment [2] is listed as 397.3799.

In the case of `COc1ccc2c(c1)[C@]1(C[C@H]1c1ccc3c(Nc4nc(C)ncc4OCC(F)(F)F)n[nH]c3c1)C(=O)N2` [Example 149, (1R,2S)-5′-methoxy-2-(3-{[2-methyl-5-(2,2,2-trifluoroethoxy)pyrimidin-4-yl]amino}-1H-indazol-6-yl)spiro[cyclopropane-1,3′-indol]-2′(1′H)-one], the “[Aurora B IC50 (nM)]/[PLK4 IC50 (nM)]” value in experiment [1] is listed as 879.4799. Further, the IC50 at human recombinant PLK4 was 3.15 nM; in the experiment on CHP-134 cells it was 844 nM. The “[Aurora A IC50 (nM)]/[PLK4 IC50 (nM)]” value in experiment [2] is 3193.7837.

For the molecule `COc1ccc2c(c1)[C@]1(C[C@H]1c1ccc3c(Nc4ccc(C)nc4OC)n[nH]c3c1)C(=O)N2` [Example 150, (1R,2S)-5′-methoxy-2-{3-[(2-methoxy-6-methylpyridin-3-yl)amino]-1H-indazol-6-yl}spiro[cyclopropane-1,3′-indol]-2′(1′H)-one], the “[Aurora B IC50 (nM)]/[PLK4 IC50 (nM)]” value in experiment [1] is recorded as 366.7569. For the same molecule, the values for the IC50 at human recombinant PLK4 and in the experiment on CHP-134 cells were 8.13 nM and 3160 nM, respectively. For the same molecule, in experiment [2], the “[Aurora A IC50 (nM)]/[PLK4 IC50 (nM)]” value is recorded as 720.7185.

As to `COc1ccc2c(c1)[C@]1(C[C@H]1c1ccc3c(Nc4nc(C)nc5c4OCC5)n[nH]c3c1)C(=O)N2` [Example 153, (1R,2S)-5′-methoxy-2-{3-[(2-methyl-6,7-dihydrofuro[3,2-d]pyrimidin-4-yl)amino]-1H-indazol-6-yl}spiro[cyclopropane-1,3′-indol]-2′(1′H)-one], in experiment [1], the “[Aurora B IC50 (nM)]/[PLK4 IC50 (nM)]” value is 123.6097. Also, the IC50 came to 1.91 nM on human recombinant PLK4 and 876 nM in the experiment on CHP-134 cells. Besides, the “[Aurora A IC50 (nM)]/[PLK4 IC50 (nM)]” value in experiment [2] is given as 1254.4596.

Turning to `COc1ccc2c(c1)[C@]1(C[C@H]1c1ccc3c(Nc4nc(C5CCOCC5)ncc4OC)n[nH]c3c1)C(=O)N2` [Example 154, (1R,2S)-5′-methoxy-2-(3-{[5-methoxy-2-(oxan-4-yl)pyrimidin-4-yl]amino}-1H-indazol-6-yl)spiro[cyclopropane-1,3′-indol]-2′(1′H)-one], the “[Aurora B IC50 (nM)]/[PLK4 IC50 (nM)]” value in experiment [1] is 655.2254. The half-maximal inhibitory concentration (IC50) at human recombinant PLK4 stood at 0.976 nM; in the experiment on CHP-134 cells it was 260 nM. Also, in experiment [2], the “[Aurora A IC50 (nM)]/[PLK4 IC50 (nM)]” value came out at 1373.9754.

`COc1ccc2c(c1)[C@]1(C[C@H]1c1ccc3c(Nc4nc(SC)ncc4OC)n[nH]c3c1)C(=O)N2` [Example 155, (1R,2S)-5′-methoxy-2-(3-{[5-methoxy-2-(methylsulfanyl)pyrimidin-4-yl]amino}-1H-indazol-6-yl)spiro[cyclopropane-1,3′-indol]-2′(1′H)-one]: the “[Aurora B IC50 (nM)]/[PLK4 IC50 (nM)]” value in experiment [1] was found to be 68.0773. Further, the IC50 at human recombinant PLK4 was found to be 1.03 nM; in the experiment with CHP-134 cells, 192 nM. Moreover, in experiment [2], the “[Aurora A IC50 (nM)]/[PLK4 IC50 (nM)]” value is given as 305.4106.
